Laboratory results published in patent US8778920B2, “3-cyano-quinoline derivatives with antiproliferative activity” (Janssen Pharmaceutica NV, priority 2004, dated 2014).
Structures can show the parent of a compound that is named as a salt.

Tested on: ovarian carcinoma cell line (SKOV3)
Assay: Serum starved, EGF stimulated proliferation assay on ovarian carcinoma SKOV3 cells (MTT)
Assay type: cell-based
Settings: Homo sapiens, SK-OV-3, serum free, 72 hours EGF 100 ng/ml, b231 calls the values pIC50, read-out: SKOV3 cell (C3): IC50 (converted)
Protocol: The ovarian carcinoma cell line (SKOV3) was used in an epidermal growth factor stimulated cell proliferation assay, to assess the inhibitory effect of the compounds on EGF in whole cells. In a first step the SKOV3 cells were incubated for 24 hours in the presence of 10% FCS serum. In the second step the cells were incubated with the compounds to be tested in a serum free condition (37° C. and 5% (v/v) CO2) and subsequently stimulated for 72 hours with EGF at a final concentration of 100 ng/ml. The effect of the compounds on the EGF stimulation was finally assessed in a standard MTT cell viability assay.

- IC50: 158 nM
SMILES: COc1cc2ncc(C#N)c3c2cc1OCCCCCNCc1ccc(Br)cc1N3 [Compound 2, 4,6-ethanediylidenepyrido[4,3-b][6,1,12]benzoxadiazacyclopentadecine-1-carbonitrile, 17-bromo-8,9,10,11,12,13,14,19-octahydro-20-methoxy-, monohydrochloride]
